Measurements: PMC7265429, “Characterization of a new small-molecule inhibitor of HDAC6 in glioblastoma” (Cell Death & Disease, 2020)

System: GNS166 cells
Experiment: Microarray whole-transcriptome gene expression analysis
Assay type: cell-based, human
Settings: DMSO vs SAHA, downregulated
Description: Whole-transcriptome analysis was performed from 300 ng of RNA using HuGene-2_0-st-v1 expression array (Affymetrix), which covers 48,226 transcripts. Raw data were first checked for quality purposes through the Affymetrix® Expression Console™ Software v1.4.1 and TAC software v4.0. Then, data were normalized using the Robust Multi-array Average (RMA) and analyzed by Limma tool. Probesets with FDR-corrected p-values smaller than 0.05 were selected. Functional enrichment on Gene Ontology (GO) biological processes was performed on a smaller subset of the differentially expressed genes (corrected p-value < 0.001) by means of Broad Institute GSEA. […] The data that support this study have been deposited in NCBI´s Gene Expression Omnibus and are accessible through GEO series accession number GSE143887.

`O=C(CCCCCCC(=O)Nc1ccccc1)NO` [SAHA, Suberoylanilide hydroxamic acid] was tested, and the “logFC GTF2IRD2” value (transcript TC0700011518.hg.1) was -2.067, the “logFC GBAS” value (transcript TC0700013363.hg.1) was -1.318 and the “logFC NDUFB2” value (transcript TC0700013468.hg.1) was -1.3. The “logFC MSRA” value (transcript TC0800006692.hg.1) was -1.45, the “logFC CYC1” value (transcript TC0800009239.hg.1) was -1.06 and the “logFC PBK” value (transcript TC0800009970.hg.1) was -1.706. The “logFC ANK1” value (transcript TC0800010252.hg.1) was -2.257, the “logFC NSMAF” value (transcript TC0800010553.hg.1) was -1.838 and the “logFC CPA6” value (transcript TC0800010708.hg.1) was -2.501. The “logFC HAS2” value (transcript TC0800011646.hg.1) was -1.946, the “logFC FXN” value (transcript TC0900007494.hg.1) was -0.9868 and the “logFC NEK6” value (transcript TC0900008716.hg.1) was -1.139. The “logFC ARHGEF39” value (transcript TC0900009948.hg.1) was -1.156, the “logFC KIAA0368” value (transcript TC0900011200.hg.1) was -1.9364 and the “logFC SUSD1” value (transcript TC0900011220.hg.1) was -2.309. The “logFC PHF19” value (transcript TC0900011388.hg.1) was -2.061, the “logFC CIZ1” value (transcript TC0900011626.hg.1) was -1.331 and the “logFC TOR1A” value (transcript TC0900011709.hg.1) was -1.605. The “logFC VAV2” value (transcript TC0900011864.hg.1) was -1.105, the “logFC ANAPC16” value (transcript TC1000007986.hg.1) was -1.273 and the “logFC PLEKHS1” value (transcript TC1000008955.hg.1) was -2.168. The “logFC SEPHS1” value (transcript TC1000009844.hg.1) was -1.411, the “logFC EPC1” value (transcript TC1000010256.hg.1) was -1.207 and the “logFC PBLD” value (transcript TC1000010843.hg.1) was -1.5. The “logFC DNAJB12” value (transcript TC1000010990.hg.1) was -1.539, the “logFC PRDX3” value (transcript TC1000011993.hg.1) was -0.8845 and the “logFC MKI67” value (transcript TC1000012235.hg.1) was -1.335. The “logFC AS3MT” value (transcript TC1000012496.hg.1) was -1.5939, the “logFC PARVA” value (transcript TC1100006879.hg.1) was -1.499 and the “logFC CCND1” value (transcript TC1100008236.hg.1) was -0.9478. The “logFC TSKU” value (transcript TC1100008514.hg.1) was -1.319, the “logFC NTM” value (transcript TC1100009561.hg.1) was -2.198 and the “logFC IFITM3” value (transcript TC1100009657.hg.1) was -1.487. The “logFC FOSL1” value (transcript TC1100011259.hg.1) was -2.603, the “logFC TRIM22” value (transcript TC1100012957.hg.1) was -3.047 and the “logFC CHEK1” value (transcript TC1100013111.hg.1) was -0.9424. For the same compound, the “logFC CDCA5” value (transcript TC1100013184.hg.1) was -1.4587, the “logFC CLCF1” value (transcript TC1100013192.hg.1) was -1.898 and the “logFC TSPAN9” value (transcript TC1200006520.hg.1) was -1.358. The “logFC RAD51AP1” value (transcript TC1200006561.hg.1) was -1.95, the “logFC C12orf57” value (transcript TC1200006656.hg.1) was -1.605 and the “logFC ESPL1” value (transcript TC1200007707.hg.1) was -1.687. The “logFC IKZF4” value (transcript TC1200007822.hg.1) was -1.324, the “logFC FOXM1” value (transcript TC1200009621.hg.1) was -2.01 and the “logFC CDCA3” value (transcript TC1200009759.hg.1) was -2.054. The “logFC MFAP5” value (transcript TC1200009834.hg.1) was -1.349, the “logFC TAS2R10” value (transcript TC1200009919.hg.1) was -2.012 and the “logFC MCRS1” value (transcript TC1200010633.hg.1) was -1.188. The “logFC MMAB” value (transcript TC1200011873.hg.1) was -1.164, the “logFC WSB2” value (transcript TC1200012105.hg.1) was -1.343 and the “logFC CIT” value (transcript TC1200012143.hg.1) was -1.292. For the same compound, the “logFC TAPBPL” value (transcript TC1200012584.hg.1) was -1.336, the “logFC PRR4” value (transcript TC1200012755.hg.1) was -1.713 and the “logFC R3HDM2” value (transcript TC1200012808.hg.1) was -1.233. The “logFC PHF11” value (transcript TC1300007167.hg.1) was -1.841, the “logFC ITGBL1” value (transcript TC1300007870.hg.1) was -1.539 and the “logFC DIAPH3” value (transcript TC1300009088.hg.1) was -1.66. The “logFC GAS6” value (transcript TC1300009924.hg.1) was -1.149, the “logFC RHOJ” value (transcript TC1400007404.hg.1) was -2.1714 and the “logFC BTBD6” value (transcript TC1400008476.hg.1) was -1.003. For the same compound, the “logFC AJUBA” value (transcript TC1400010715.hg.1) was -1.776, the “logFC ARHGAP11B” value (transcript TC1500006785.hg.1) was -1.512 and the “logFC CCNB2” value (transcript TC1500007392.hg.1) was -2.179. For the same compound, the “logFC TPM1” value (transcript TC1500007510.hg.1) was -1.243, the “logFC KIF23” value (transcript TC1500007699.hg.1) was -1.664 and the “logFC MAN2A2” value (transcript TC1500008341.hg.1) was -1.396. For the same compound, the “logFC LCTL” value (transcript TC1500009830.hg.1) was -1.502, the “logFC PRC1” value (transcript TC1500010463.hg.1) was -1.211 and the “logFC ARHGAP11B” value (transcript TC1500010707.hg.1) was -1.7076. For the same compound, the “logFC C16orf62” value (transcript TC1600007113.hg.1) was -1.881, the “logFC PLK1” value (transcript TC1600007235.hg.1) was -1.599 and the “logFC ARL2BP” value (transcript TC1600007992.hg.1) was -1.083. For the same compound, the “logFC SHCBP1” value (transcript TC1600010168.hg.1) was -1.56, the “logFC XAF1” value (transcript TC1700006709.hg.1) was -1.919 and the “logFC MPDU1” value (transcript TC1700006758.hg.1) was -1.716. For the same compound, the “logFC GOSR1” value (transcript TC1700007454.hg.1) was -1.325, the “logFC CCL2” value (transcript TC1700007557.hg.1) was -1.8857 and the “logFC ABCC3” value (transcript TC1700008263.hg.1) was -2.846. The “logFC BIRC5” value (transcript TC1700009043.hg.1) was -1.565, the “logFC AURKB” value (transcript TC1700009679.hg.1) was -1.67 and the “logFC CENPV” value (transcript TC1700009888.hg.1) was -1.862. The “logFC MED24” value (transcript TC1700010599.hg.1) was -1.405, the “logFC TOP2A” value (transcript TC1700010618.hg.1) was -1.269 and the “logFC CCDC43” value (transcript TC1700010841.hg.1) was -0.9856. The “logFC ALYREF” value (transcript TC1700012078.hg.1) was -1.381, the “logFC SPAG5” value (transcript TC1700012380.hg.1) was -2.042 and the “logFC SERPINB8” value (transcript TC1800009245.hg.1) was -1.496. For the same compound, the “logFC NFIC” value (transcript TC1900006628.hg.1) was -1.238 and the “logFC SYDE1” value (transcript TC1900007208.hg.1) was -1.288.
